Measured values published in PubChem BioAssay (NCI).
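Grown in 96-well plates, cells were treated for 48 hours with each compound at five concentrations. Insufficient inhibition: endpoint recorded as highest concentration tested. Abbreviation: GI50, concentration required for 50% inhibition of growth. TGI denotes the concentration required for complete inhibition of growth.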

Legend:
Assay in all cases: NCI anticancer screen, dose series, 48 h
U251 CNS = tested on: U251 CNS
MALME-3M melanoma = tested on: MALME-3M melanoma
HL-60(TB) leukemia = tested on: HL-60(TB) leukemia
MDA-MB-435 = tested on: MDA-MB-435
EKVX NSCLC = tested on: EKVX NSCLC
PC-3 prostate = tested on: PC-3 prostate
A498 renal = tested on: A498 renal
UACC-62 melanoma = tested on: UACC-62 melanoma
DU-145 prostate = tested on: DU-145 prostate
HT29 colon = tested on: HT29 colon
SR leukemia = tested on: SR leukemia
LOX IMVI melanoma = tested on: LOX IMVI melanoma
HCC-2998 colon = tested on: HCC-2998 colon
NCI-H23 lung = tested on: NCI-H23 lung
HCT-15 colon = tested on: HCT-15 colon
SK-OV-3 ovarian = tested on: SK-OV-3 ovarian
SK-MEL-5 melanoma = tested on: SK-MEL-5 melanoma
TK-10 renal = tested on: TK-10 renal
CCRF-CEM leukemia = tested on: CCRF-CEM leukemia
SN12C renal = tested on: SN12C renal
HCT-116 colon = tested on: HCT-116 colon
COLO 205 colon = tested on: COLO 205 colon
HOP-62 NSCLC = tested on: HOP-62 NSCLC
SF-295 CNS = tested on: SF-295 CNS
M14 melanoma = tested on: M14 melanoma
UO-31 renal = tested on: UO-31 renal
MDA-MB-231 breast = tested on: MDA-MB-231 breast
SNB-19 CNS = tested on: SNB-19 CNS
SF-539 CNS = tested on: SF-539 CNS
MCF7 breast = tested on: MCF7 breast
SF-268 CNS = tested on: SF-268 CNS
SK-MEL-28 melanoma = tested on: SK-MEL-28 melanoma
NCI-H522 lung = tested on: NCI-H522 lung
IGROV1 ovarian = tested on: IGROV1 ovarian
CAKI-1 renal = tested on: CAKI-1 renal
SNB-75 CNS = tested on: SNB-75 CNS
SW-620 colon = tested on: SW-620 colon
OVCAR-4 ovarian = tested on: OVCAR-4 ovarian
A549 NSCLC = tested on: A549 NSCLC
NCI-H226 lung = tested on: NCI-H226 lung
OVCAR-3 ovarian = tested on: OVCAR-3 ovarian
ACHN renal = tested on: ACHN renal
OVCAR-8 ovarian = tested on: OVCAR-8 ovarian
OVCAR-5 ovarian = tested on: OVCAR-5 ovarian
HOP-92 NSCLC = tested on: HOP-92 NSCLC
KM12 colon = tested on: KM12 colon
NCI-H460 lung = tested on: NCI-H460 lung
T-47D breast = tested on: T-47D breast
786-0 renal = tested on: 786-0 renal
RPMI-8226 leukemia = tested on: RPMI-8226 leukemia
SK-MEL-2 melanoma = tested on: SK-MEL-2 melanoma
HS 578T breast = tested on: HS 578T breast
K-562 leukemia = tested on: K-562 leukemia
NCI/ADR-RES ovarian = tested on: NCI/ADR-RES ovarian
BT-549 breast = tested on: BT-549 breast
MOLT-4 leukemia = tested on: MOLT-4 leukemia
UACC-257 melanoma = tested on: UACC-257 melanoma
RXF 393 renal = tested on: RXF 393 renal

## C[C@]12CC[C@H](O)CC1=CC[C@@H]1[C@@H]2CC[C@]2(C)C(=O)/C(=C/c3cccc(OCCCn4ccnc4)c3)C[C@@H]12
U251 CNS
  GI50: 24.8 µM
  TGI: 77.3 µM
MALME-3M melanoma
  GI50: 23.9 µM
  TGI: 59.1 µM
HL-60(TB) leukemia
  GI50: 13.8 µM
  TGI: 44.7 µM
MDA-MB-435
  GI50: 36.8 µM
  TGI: > 100 µM
EKVX NSCLC
  GI50: 21.1 µM
  TGI: 46.3 µM
PC-3 prostate
  GI50: 15.6 µM
  TGI: 39.8 µM
A498 renal
  GI50: 20.5 µM
  TGI: 39.1 µM
UACC-62 melanoma
  GI50: 13.1 µM
  TGI: 30 µM
DU-145 prostate
  GI50: 19.9 µM
  TGI: 38.7 µM
HT29 colon
  GI50: 7.53 µM
  TGI: 27 µM
SR leukemia
  GI50: 13.9 µM
  TGI: 40 µM
LOX IMVI melanoma
  GI50: 23.1 µM
  TGI: 56.2 µM
HCC-2998 colon
  GI50: 34.1 µM
  TGI: > 100 µM
NCI-H23 lung
  GI50: 15.5 µM
  TGI: 32.3 µM
HCT-15 colon
  GI50: 16.8 µM
  TGI: 40.4 µM
SK-OV-3 ovarian
  GI50: 17.4 µM
  TGI: 62.7 µM
SK-MEL-5 melanoma
  GI50: 11.1 µM
  TGI: 24.6 µM
TK-10 renal
  GI50: 27.9 µM
  TGI: 72 µM
CCRF-CEM leukemia
  GI50: 16.4 µM
  TGI: > 100 µM
SN12C renal
  GI50: 28.7 µM
  TGI: 88.3 µM
HCT-116 colon
  GI50: 15 µM
  TGI: 30.2 µM
COLO 205 colon
  GI50: 20.3 µM
  TGI: 45.8 µM
HOP-62 NSCLC
  GI50: 20.4 µM
  TGI: 38.2 µM
SF-295 CNS
  GI50: 31.7 µM
  TGI: > 100 µM
M14 melanoma
  GI50: 18.5 µM
  TGI: 33.2 µM
UO-31 renal
  GI50: 16 µM
  TGI: 35.1 µM
MDA-MB-231 breast
  GI50: 20.6 µM
  TGI: 40.4 µM
SNB-19 CNS
  GI50: 27 µM
  TGI: 77.3 µM
SF-539 CNS
  GI50: 18.7 µM
  TGI: 35.5 µM
MCF7 breast
  GI50: 23.1 µM
  TGI: 54.1 µM
SF-268 CNS
  GI50: 21.4 µM
  TGI: 55.6 µM
SK-MEL-28 melanoma
  GI50: 22.2 µM
  TGI: 51.5 µM
NCI-H522 lung
  GI50: 16.6 µM
  TGI: 34.2 µM
IGROV1 ovarian
  GI50: 19.4 µM
  TGI: 46.2 µM
CAKI-1 renal
  GI50: 38.4 µM
  TGI: > 100 µM
SNB-75 CNS
  GI50: 19.7 µM
  TGI: 38.4 µM
SW-620 colon
  GI50: 19.7 µM
  TGI: 40.9 µM
OVCAR-4 ovarian
  GI50: 19.6 µM
  TGI: 64.6 µM
A549 NSCLC
  GI50: 13.8 µM
  TGI: 28.8 µM
NCI-H226 lung
  GI50: 21.4 µM
  TGI: 50.2 µM
OVCAR-3 ovarian
  GI50: 28.8 µM
  TGI: > 100 µM
ACHN renal
  GI50: 16.7 µM
  TGI: 38.6 µM
OVCAR-8 ovarian
  GI50: 17.7 µM
  TGI: 32.8 µM
OVCAR-5 ovarian
  GI50: 18.1 µM
  TGI: 34.8 µM
HOP-92 NSCLC
  GI50: 12.6 µM
  TGI: 32.3 µM
KM12 colon
  GI50: 34 µM
  TGI: > 100 µM
NCI-H460 lung
  GI50: 19.6 µM
  TGI: 43.2 µM
T-47D breast
  GI50: 12.4 µM
  TGI: 31.3 µM
786-0 renal
  GI50: 23.2 µM
  TGI: 47.2 µM
RPMI-8226 leukemia
  GI50: 10.1 µM
  TGI: 31.6 µM
SK-MEL-2 melanoma
  GI50: 19.9 µM
  TGI: 51 µM
HS 578T breast
  GI50: 21.5 µM
  TGI: 54.2 µM
K-562 leukemia
  GI50: 16 µM
  TGI: 58.1 µM

## FC(F)(F)c1cc(Nc2ccc3c(OCCCN4CCOCC4)cccc3n2)ccc1Cl
MALME-3M melanoma
  GI50: 1.69 µM
  TGI: 4.11 µM
NCI/ADR-RES ovarian
  GI50: 3.16 µM
  TGI: > 100 µM
PC-3 prostate
  GI50: 2.26 µM
  TGI: > 100 µM
A498 renal
  GI50: 3.12 µM
  TGI: 48.3 µM
UACC-62 melanoma
  GI50: 2.05 µM
  TGI: 4.16 µM
DU-145 prostate
  GI50: 2.78 µM
  TGI: > 100 µM
TK-10 renal
  GI50: 3.49 µM
  TGI: > 100 µM
SN12C renal
  GI50: 3.35 µM
  TGI: 16.8 µM
HCT-116 colon
  GI50: 2.07 µM
  TGI: 4.55 µM
UO-31 renal
  GI50: 1.63 µM
  TGI: 4.29 µM
SF-539 CNS
  GI50: 1.9 µM
  TGI: 4.01 µM
IGROV1 ovarian
  GI50: 3.96 µM
  TGI: 37.8 µM
SNB-75 CNS
  GI50: 1.89 µM
  TGI: 6.2 µM
OVCAR-4 ovarian
  GI50: 3.07 µM
  TGI: > 100 µM
NCI-H226 lung
  GI50: 3.54 µM
  TGI: > 100 µM
BT-549 breast
  GI50: 2.43 µM
  TGI: 8.76 µM
ACHN renal
  GI50: 2.98 µM
  TGI: 10.3 µM
OVCAR-8 ovarian
  GI50: 4.33 µM
  TGI: > 100 µM
OVCAR-5 ovarian
  GI50: 2.36 µM
  TGI: 6.24 µM

## [N-]=N[N+]#I1OC(C(F)(F)F)(C(F)(F)F)c2ccccc21
U251 CNS
  TGI: 33.8 µM
HL-60(TB) leukemia
  TGI: 30.6 µM
NCI/ADR-RES ovarian
  TGI: 45.4 µM
MDA-MB-435
  TGI: 34.2 µM
EKVX NSCLC
  TGI: 34 µM
PC-3 prostate
  TGI: 30.1 µM
A498 renal
  TGI: 31.8 µM
MOLT-4 leukemia
  TGI: 59.2 µM
UACC-62 melanoma
  TGI: 47.8 µM
DU-145 prostate
  TGI: 38 µM
UACC-257 melanoma
  TGI: 75.9 µM
HT29 colon
  TGI: 35.3 µM
SR leukemia
  TGI: 68.3 µM
LOX IMVI melanoma
  TGI: 77.1 µM
HCC-2998 colon
  TGI: 31.8 µM
NCI-H23 lung
  TGI: 36.8 µM
HCT-15 colon
  TGI: 21.2 µM
SK-OV-3 ovarian
  TGI: 58.8 µM
SK-MEL-5 melanoma
  TGI: 4.36 µM
TK-10 renal
  TGI: 32 µM
CCRF-CEM leukemia
  TGI: 47.2 µM
SN12C renal
  TGI: 30 µM
HCT-116 colon
  TGI: 38.2 µM
COLO 205 colon
  TGI: 27 µM
HOP-62 NSCLC
  TGI: 28.4 µM
SF-295 CNS
  TGI: 31.2 µM
M14 melanoma
  TGI: > 100 µM
UO-31 renal
  TGI: 23.7 µM
RXF 393 renal
  TGI: 30.7 µM
MDA-MB-231 breast
  TGI: 29 µM
SNB-19 CNS
  TGI: > 100 µM
SF-539 CNS
  TGI: 30.6 µM
MCF7 breast
  TGI: 27.3 µM
SF-268 CNS
  TGI: 27.9 µM
SK-MEL-28 melanoma
  TGI: 28.9 µM
NCI-H522 lung
  TGI: 30.5 µM
IGROV1 ovarian
  TGI: 32.7 µM
CAKI-1 renal
  TGI: 20.9 µM
SNB-75 CNS
  TGI: 32.5 µM
SW-620 colon
  TGI: 40 µM
OVCAR-4 ovarian
  TGI: 28.9 µM
A549 NSCLC
  TGI: 39.2 µM
NCI-H226 lung
  TGI: 54.1 µM
OVCAR-3 ovarian
  TGI: 27.8 µM
ACHN renal
  TGI: 29.1 µM
OVCAR-8 ovarian
  TGI: 34.5 µM
OVCAR-5 ovarian
  TGI: 28.5 µM
HOP-92 NSCLC
  TGI: 27 µM
KM12 colon
  TGI: 29 µM
T-47D breast
  TGI: 27.7 µM
786-0 renal
  TGI: 31.6 µM
RPMI-8226 leukemia
  TGI: 51.8 µM
SK-MEL-2 melanoma
  TGI: 32 µM
HS 578T breast
  TGI: 37.3 µM
K-562 leukemia
  TGI: > 100 µM

## CN(CCNC(=O)c1[nH]nc2c1ccc1ccccc12)CCNC(=O)c1[nH]nc2c1ccc1ccccc12
HL-60(TB) leukemia
  TGI: 5.95 µM
NCI/ADR-RES ovarian
  TGI: > 100 µM
PC-3 prostate
  TGI: 6.8 µM
A498 renal
  TGI: 67.7 µM
DU-145 prostate
  TGI: 10.2 µM
UACC-257 melanoma
  TGI: 56.7 µM
HT29 colon
  TGI: 3.27 µM
LOX IMVI melanoma
  TGI: 3.33 µM
HCC-2998 colon
  TGI: 3.61 µM
NCI-H23 lung
  TGI: 4.09 µM
HCT-15 colon
  TGI: 46.7 µM
SK-OV-3 ovarian
  TGI: 30.1 µM
SK-MEL-5 melanoma
  TGI: 3.24 µM
CCRF-CEM leukemia
  TGI: 5 µM
COLO 205 colon
  TGI: 2.74 µM
M14 melanoma
  TGI: 3.49 µM
UO-31 renal
  TGI: 29.1 µM
MCF7 breast
  TGI: 3.29 µM
SF-268 CNS
  TGI: 4.84 µM
NCI-H522 lung
  TGI: 3.9 µM
CAKI-1 renal
  TGI: > 76.2 µM
NCI-H226 lung
  TGI: 46.5 µM
OVCAR-3 ovarian
  TGI: 6.26 µM
BT-549 breast
  TGI: 53.2 µM
OVCAR-5 ovarian
  TGI: 3.71 µM
HOP-92 NSCLC
  TGI: 18.5 µM
KM12 colon
  TGI: 5.3 µM
NCI-H460 lung
  TGI: 5.11 µM
T-47D breast
  TGI: 5.03 µM
SK-MEL-2 melanoma
  TGI: 37.9 µM
